In patent publication US20070265278A1, “2-PHENYL-INDOLES AS PROSTAGLANDIN D2 RECEPTOR ANTAGONISTS” (Aventis Pharmaceuticals Inc., priority 2005, published 2007):

What follows are molecules tested against T1, DP receptor (Homo sapiens, UniProt Q13258) (assay: SPA cAMP assay in human LS174 T cells (human DP functional assay)). Details: inhibition of PGD2 (15 nM)-stimulated cAMP, LS174T cells expressing endogenous DP receptor.
T1 construct: using the human cell line LS174T, which expresses the endogenous DP receptor; endogenous in cells; host or cells: LS174T human cell line
T1 sequence (Q13258 1-359): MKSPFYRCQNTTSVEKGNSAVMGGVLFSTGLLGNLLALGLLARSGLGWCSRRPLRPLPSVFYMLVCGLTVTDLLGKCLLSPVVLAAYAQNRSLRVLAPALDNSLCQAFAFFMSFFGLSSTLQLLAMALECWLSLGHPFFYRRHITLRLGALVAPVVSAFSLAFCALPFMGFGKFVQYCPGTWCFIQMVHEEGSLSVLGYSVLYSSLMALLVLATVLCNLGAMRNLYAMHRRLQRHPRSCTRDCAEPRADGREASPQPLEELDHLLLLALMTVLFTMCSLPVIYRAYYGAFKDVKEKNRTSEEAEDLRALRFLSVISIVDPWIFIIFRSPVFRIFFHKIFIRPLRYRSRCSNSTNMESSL
Assay type: cell-based
Procedure: The inhibitory effects of the compounds according to the invention are assessed in a human DP functional assay. A cAMP assay is employed using the human cell line LS174T, which expresses the endogenous DP receptor. The protocol is similar to that described previously (Wright D H, Ford-Hutchinson A W, Chadee K, Metters K M, The human prostanoid DP receptor stimulates mucin secretion in LS174T cells, Br J Pharmacol. 131(8):1537-45 (2000)).
Protocol for SPA cAMP Assay in Human LS174 T Cells
• PGD2 (Cayman Chemical Cat#12010) • IBMX (Sigma Cat# 5879) • cAMP SPA direct screening assay system (Amersham code RPA 559) • 96-well cell plates (Wallac Cat# 1450-516) • Wallac 1450 Microplate Trilux scintillation counter (PerkinElmer) • Plate sealers • Eppendorf tubes • Dulbecco's Phosphate-Buffered Saline (PBS) (Invitrogen Cat#14040-133) • Distilled water • Vortex • Magnetic stirrer and stirrer bars Reagent Preparation:
All reagents should be allowed to equilibrate to room temperature before reconstitution.
Transfer the contents of the bottle to a 500 mL graduated cylinder by repeated washing with distilled water. Adjust the final volume to 500 mL with distilled water and mix thoroughly.
Dissolve each of the lysis reagents 1 and 2 in 200 mL assay buffer respectively. Leave at room temperature for 20 minutes to dissolve.
Add 30 mL of lysis buffer 2 to the bottle. Gently shake the bottle for 5 minutes.
Add 15 mL of lysis buffer 2 to each vial, and gently mix until the contents are completely dissolved.
Add 14 mL lysis buffer 2 to each vial and gently mix until the contents are completely dissolved.
Preparation of Immunoreagent
• 1) Add equal volumes of tracer, antiserum and SPA anti-rabbit reagent to a bottle, ensuring that a sufficient volume of this mixture is prepared for the desired number of wells (150 μL/well). • 2) Mix thoroughly. • 3) This immunoreagent solution should be freshly prepared before each assay and not re-used. Standard • 1) Add 1 mL lysis buffer 1 and gently mix until contents are completely dissolved. • 2) The final solution contains cAMP at a concentration of 512 pmol/mL. • 3) Label 7 polypropylene or polystyrene tubes, 0.2 pmol, 0.4 pmol, 0.8 pmol, 1.6 pmol, 3.2 pmol, 6.4 pmol and 12.8 pmol. • 4) Pipette 500 μL of lysis buffer 1 into all the tubes. • 5) Into the 12.8 pmol tube pipette 500 μL of stock standard (512 pmol/mL) and mix thoroughly. Transfer 500 μL from 12.8 pmol tube to the 6.4 pmol tube and mix thoroughly. Repeat this doubling dilution successively with the remaining tubes.
6) 50 μL aliquots in duplicate from each serial dilution and the stock standard will give rise to 8 standard levels of cAMP ranging from 0.2-25.6 pmol standard
Add 50 μL of […] IBMX into 100 mL PBS to make a final concentration of 100 μM and sonicate at 30° C. for 20 minutes.
Dissolve 1 mg PGD2 (FW, 352.5) in 284 μL DMSO to make 10 mM stock solution and store at […]. Before each assay, it is freshly prepared. Add 3 μL of 10 mM stock solution to 20 mL DMSO, mix it thoroughly, and transfer 10 mL to 40 mL PBS.
Compound dilution is carried out in Biomex 2000 (Beckman) using Method 1_cAMP DP 11 points.
5 μL of each compound from the 10 mM stock compound plates is transferred to the wells of a 96-well plate respectively as below.
Fill the plate with 45 μL of DMSO except column 7 is filled with 28 μL DMSO. Pipette column 1 thoroughly, and transfer 12 μL into column 7 parallel. Perform 1:10 serial dilution from column 1 to column 6 and from column 7 to column 11 by transfer 5 μL to 45 μL DMSO to make following concentrations:
Fill a new 96-well plate with 247.5 μL of compound dilution buffer. Transfer 2.5 μL of serially diluted compounds from above plate to the new plate (1:100 dilution) as following:
Cell Growth • 1. LS174 T are always grown in MEM (ATCC Cat# 30-2003), 10% FBS (ATCC Cat# 30-2020) and additional 2 mM L-glutamine, at 37° C. and 5% CO2. • 2. Warm 0.05% Trypsin and Versine (Invitrogen Cat# 25300-054) at 37° C. water bath. • 3. […]

SMILES	IC50 [nM]
O=C(O)Cc1c(-c2ccc(Cl)c(S(=O)(=O)NC3CCCCC3)c2)[nH]c2ccccc12 [Example 1(a), [2-(4-Chloro-3-cyclohexylsulfamoyl-phenyl)-1H-indol-3-yl]-acetic acid]	2.2
O=C(O)Cc1c(-c2ccc(Cl)c(S(=O)(=O)NC3CC4CCC3C4)c2)[nH]c2ccccc12 (stereo not shown) [Example 1(b), {2-[3-(Bicyclo[2.2.1]hept-2-ylsulfamoyl)-4-chloro-phenyl]-1H-indol-3-yl}-acetic acid]	3
CCCCCCNS(=O)(=O)c1cc(-c2[nH]c3ccccc3c2CC(=O)O)ccc1Cl [Example 1(c), [2-(4-Chloro-3-hexylsulfamoyl-phenyl)-1H-indol-3-yl]-acetic acid]	31
O=C(O)Cc1c(-c2ccc(Cl)c(S(=O)(=O)NC3Cc4ccccc4C3)c2)[nH]c2ccccc12 [Example 1(d), {2-[4-Chloro-3-(indan-2-ylsulfamoyl)-phenyl]-1H-indol-3-yl}-acetic acid]	9.6
CC(C)NS(=O)(=O)c1cc(-c2[nH]c3ccccc3c2CC(=O)O)ccc1Cl [Example 1(g), [2-(4-Chloro-3-isopropylsulfamoyl-phenyl)-1H-indol-3-yl]-acetic acid]	49
O=C(O)Cc1c(-c2ccc(Cl)c(S(=O)(=O)NCCC3CCCCC3)c2)[nH]c2ccccc12 [Example 1(h), {2-[4-Chloro-3-(2-cyclohexyl-ethylsulfamoyl)-phenyl]-1H-indol-3-yl}-acetic acid]	35
O=C(O)Cc1c(-c2ccc(Cl)c(S(=O)(=O)NCC34CC5CC(CC(C5)C3)C4)c2)[nH]c2ccccc12 [Example 1(m), (2-[4-Chloro-3-[(tricyclo[3.3.1.13.7]decan-1-ylmethyl)-sulfamoyl]-phenyl]-1H-indol-3-yl)-acetic acid]	8.6
O=C(O)Cc1c(-c2ccc(Cl)c(S(=O)(=O)NC3CCOCC3)c2)[nH]c2ccccc12 [Example 1(o), {2-[4-Chloro-3-(tetrahydro-pyran-4-ylsulfamoyl)-phenyl]-1H-indol-3-yl}-acetic acid]	52
O=C(O)Cc1c(-c2ccc(Cl)c(S(=O)(=O)N3CCCCC3)c2)[nH]c2ccccc12 [Example 1(p), {2-[4-Chloro-3-(piperidine-1-sulfonyl)-phenyl]-1H-indol-3-yl}-acetic acid]	678
CC(C)(C)c1ccc2[nH]c(-c3ccc(Cl)c(S(=O)(=O)NC4CCCCC4)c3)c(CC(=O)O)c2c1 [Example 1(s), [5-tert-Butyl-2-(4-chloro-3-cyclohexylsulfamoyl-phenyl)-1H-indol-3-yl]-acetic acid]	4
O=C(O)Cc1c(-c2ccc(Cl)c(S(=O)(=O)NC3CCCCC3)c2)[nH]c2ccc(OC(F)(F)F)cc12 [Example 1(v), [2-(4-Chloro-3-cyclohexylsulfamoyl-phenyl)-5-trifluoromethoxy-1H-indol-3-yl]-acetic acid]	4.2
CN(C1CCCCC1)S(=O)(=O)c1cc(-c2[nH]c3ccccc3c2CC(=O)O)ccc1Cl [Example 1(x), {2-[4-Chloro-3-(cyclohexyl-methyl-sulfamoyl)-phenyl]-1H-indol-3-yl}-acetic acid]	346
O=C(O)Cc1c(-c2ccc(Cl)c(S(=O)(=O)NCc3ccc(C(F)(F)F)cc3)c2)[nH]c2ccccc12 [Example 1(y), {2-[4-Chloro-3-(4-trifluoromethyl-benzylsulfamoyl)-phenyl]-1H-indol-3-yl}-acetic acid]	19
Cn1c(-c2ccc(Cl)c(S(=O)(=O)NC3CCCCC3)c2)c(CC(=O)O)c2ccccc21 [Example 2(a), [2-(4-Chloro-3-cyclohexylsulfamoyl-phenyl)-1-methyl-1H-indol-3-yl]-acetic acid]	52
O=C(O)Cc1c(-c2ccc(Cl)c(S(=O)(=O)NC3CCCCC3)c2)n(Cc2ccccc2)c2ccccc12 [Example 2(b), [1-Benzyl-2-(4-chloro-3-cyclohexylsulfamoyl-phenyl)-1H-indol-3-yl]-acetic acid]	42
COC(=O)[C@@H](NC(=O)Cc1c(-c2ccc(Cl)c(S(=O)(=O)NC3CCCCC3)c2)[nH]c2ccccc12)C(C)C [Example 3(a), (S)-2-{2-[2-(4-chloro-3-cyclohexylsulfamoyl-phenyl)-1H-indol-3-yl]-acetylamino}-3-methyl-butyric acid methyl ester]	160
O=C(Cc1c(-c2ccc(Cl)c(S(=O)(=O)NC3CCCCC3)c2)[nH]c2ccccc12)NS(=O)(=O)c1ccccc1 [Example 6, 5-[3-(2-Benzenesulfonylamino-2-oxo-ethyl)-1H-indol-2-yl]-2-chloro-N-cyclohexyl benzenesulfonamide]	5
NC(=O)Cc1c(-c2ccc(Cl)c(S(=O)(=O)NC3CCCCC3)c2)[nH]c2ccccc12 [Example 7(a), 2-[2-(4-Chloro-3-cyclohexylsulfamoyl-phenyl)-1H-indol-3-yl]-acetamide]	132
Cn1c(-c2ccc(Cl)c(S(=O)(=O)NC3CCCCC3)c2)c(CCO)c2ccccc21 [Example 9, 2-Chloro-N-cyclohexyl-5-[3-(2-hydroxy-ethyl)-1-methyl-1H-indol-2-yl]-benzenesulfonamide]	8710
COc1ccc2[nH]c(-c3ccc(Cl)c(S(=O)(=O)NC4CCCCC4)c3)c(CC(=O)O)c2c1 [Example 10(a), [2-(4-Chloro-3-cyclohexylsulfamoyl-phenyl)-5-methoxy-1H-indol-3-yl]-acetic acid]	3
O=C(O)Cc1c(-c2ccc(Cl)c(S(=O)(=O)NC3CCCCC3)c2)[nH]c2ccc(O)cc12 [Example 10(c), [2-(4-Chloro-3-cyclohexylsulfamoyl-phenyl)-5-hydroxy-1H-indol-3-yl]-acetic acid]	4.2
O=C(O)Cc1c(-c2ccc(Cl)c(S(=O)(=O)NC3CCCCC3)c2)[nH]c2cc(Cl)ccc12 [Example 10(d), [6-Chloro-2-(4-chloro-3-cyclohexylsulfamoyl-phenyl)-1H-indol-3-yl]-acetic acid]	1
CN(C1CCCCC1)S(=O)(=O)c1cccc(-c2[nH]c3ccccc3c2CC(=O)O)c1 [Example 10(e), {2-[3-(Cyclohexyl-methyl-sulfamoyl)-phenyl]-1H-indol-3-yl}-acetic acid]	346
O=C(O)Cc1c(-c2cccc(S(=O)(=O)NC3CCCCC3)c2)[nH]c2ccccc12 [Example 10(f), [2-(3-Cyclohexylsulfamoyl-phenyl)-1H-indol-3-yl]-acetic acid]	106
O=C(O)Cc1c(-c2ccc(S(=O)(=O)NC3CCCCC3)cc2)[nH]c2ccccc12 [Example 10(h), [2-(4-Cyclohexylsulfamoyl-phenyl)-1H-indol-3-yl]-acetic acid]	1160
